This is an account of results in PubChem BioAssay (NCI).

The term GI50 denotes the concentration that inhibits growth by half. The TGI is the concentration at which net growth stops.

Molecules are shown by their SMILES.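 Each compound was tested at five concentrations against cells in 96-well plates for 48 hours. Here, GI50 denotes the concentration required for 50% inhibition of growth. The concentration for full growth arrest is given as TGI.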

This assay has as its system MDA-MB-468 breast. Put plainly: DTP human tumour cell line panel, 48 h.
For the molecule `COc1ccc(/C=C/c2c(C(=O)/C=C/c3ccccc3)c(C)nc3ccccc23)cc1`, the GI50 was 1780 nM and the TGI came to 3480 nM.

In the case of `COc1c(C(=O)/C=C/c2ccccc2)c(O)cc2occc12`, the GI50 was 6770 nM and the TGI amounted to 21400 nM.

Take `CC1=CC(=O)C=CC1=O`: the GI50 is 1570 nM and the TGI amounted to 3210 nM.

With `CCc1nc2cc(F)c(/C=C/C(=O)NO)cc2c(=O)n1CCc1ccccc1`, the GI50 is 217 nM and the TGI is 761 nM.

As to `COC(=O)Nc1nc2ccc(C3(c4ccc(F)cc4)OCCO3)cc2[nH]1`, the GI50 is 159 nM and the TGI is 1190 nM.

`C=C(C)[C@H]1Cc2c(ccc3c2O[C@@H]2COc4cc(OC)c(OC)cc4[C@@H]2C3=O)O1`: the GI50 was 81.6 nM and the total growth inhibition concentration (TGI) is more than 100000 nM.

Take `O=S(=O)(c1ccc(NC(=S)NC23CC4CC(CC(C4)C2)C3)cc1)N1CCCCC1`: the GI50 is 2270 nM and the TGI was 6840 nM.

Regarding `COc1ccc(-c2nc3ccccn3c2/C=C/C(=O)c2cc(OC)c(OC)c(OC)c2)cc1OC`, the GI50 was 2280 nM and the TGI was 5710 nM.

As for `CN1CCN(Cc2ccc(NC(=O)c3cncc(C#Cc4cnn5cccnc45)c3)cc2C(F)(F)F)CC1`, the GI50 was 8350 nM and the TGI is 22800 nM.

On to `COc1cc(OC)c(C(=O)/C=C/c2cccc(C(F)(F)F)c2)c(OC)c1`, for which the GI50 was 755 nM and the TGI came to 2010 nM.

On to `C=C1C(=O)O[C@H]2[C@H]1CC/C(COC(=O)NCCCCNC(=O)OC/C1=C/CC[C@@]3(C)O[C@H]3[C@H]3OC(=O)C(=C)[C@@H]3CC1)=C\CC[C@@]1(C)O[C@@H]21`, for which the GI50 was 426 nM and the TGI worked out at 2000 nM.

Regarding `NC(=O)c1cc(Cl)ccc1NC(=O)/C=C/c1ccccc1`, the GI50 was 1100 nM and the TGI was found to be 11500 nM.

Regarding `CC/C=C\C[C@H](O)C/C=C1/C(=O)C=C[C@@H]1C/C=C\CCCC(=O)OC`, the GI50 was 1680 nM and the TGI is 3770 nM.

`Cc1cc2ncnn2cc1Nc1ncc2c(n1)n(C1CCOCC1)c(=O)n2C`: the GI50 is 4370 nM and the TGI stood at 44800 nM.

For the molecule `CCNCCNc1cc(-c2ccc(C(F)(F)F)cc2)c(C#N)c2nc3ccccc3n12`, the GI50 was 688 nM and the concentration for total growth inhibition (TGI) came to 2140 nM.

Take `NS(=O)(=O)c1ccc(-c2ccc3c(NC(=O)C4CC4)n[nH]c3c2)cc1`: the GI50 is more than 21600 nM and the TGI is more than 25000 nM.

Regarding `Nc1nc(Nc2cccnc2)sc1C(=O)c1ccccc1F`, the GI50 is 1370 nM and the total growth inhibition concentration (TGI) was 4040 nM.

On to `C/C(=N\Nc1ccc(Cl)cn1)c1ccc2ccccc2n1`, for which the GI50 was 2880 nM and the TGI was more than 100000 nM.

Consider `COc1ccc2[nH]c3c4[nH]c5ccc(OC)cc5c4c4c(c3c2c1)C(=O)NC4=O`, for which the GI50 is more than 25000 nM and the TGI was more than 25000 nM.

Consider `COc1ccccc1CNCCCN1C(=O)c2ccc3c4c(ccc(c24)C1=O)C(=O)N(CCCNCCNCCCN)C3=O`, for which the GI50 was 456 nM and the TGI turned out to be 2220 nM.

`Cc1ccc(NC(=O)c2cccc(C(C)(C)C#N)c2)cc1Nc1ccc2ncn(C)c(=O)c2c1`: the GI50 is 15800 nM and the TGI is more than 100000 nM.

On to `COc1ccc(C(=O)c2cc(OC)c(OC)c(OC)c2)cc1/C=C/C(=O)c1ccc(F)cc1`, for which the GI50 is 4630 nM and the TGI turned out to be 27100 nM.

Take `CC1(C)C(=O)/C(=C\c2cccnc2)C[C@]2(C)[C@H]3CC[C@@H]4[C@H]5[C@H](C(=O)/C=C/c6cccnc6)CC[C@]5(C(=O)O)CC[C@@]4(C)[C@]3(C)CC[C@@H]12`: the GI50 is 2140 nM and the TGI worked out at 5700 nM.

Take `COc1ccc(-c2[nH]c3ccc(OC)cc3c2/C=C(\C#N)S(=O)(=O)c2ccccc2)cc1`: the GI50 was 1330 nM and the TGI is 44000 nM.

With `CN1CCN(CCCNc2nc3ccc(Oc4ccc(NC(=O)Nc5cc(C(F)(F)F)ccc5F)cc4)cc3[nH]2)CC1`, the GI50 was 3330 nM and the TGI worked out at 6570 nM.

Regarding `O=C(Nc1n[nH]c2cc(-c3ccccc3)ccc12)C1CC1`, the GI50 was 4000 nM and the concentration for total growth inhibition (TGI) is more than 25000 nM.

Consider `COc1cc2ncnc(-n3ncc4cc(NC(=O)Nc5ccccc5)ccc43)c2cc1OC`, for which the GI50 is 1180 nM and the TGI came out at 3350 nM.

Regarding `CCCCC(CC)COC(=O)C[N+](C)(C)CCOC(c1ccccc1)c1ccccc1` (stereo unspecified), the GI50 is 1460 nM and the TGI amounted to 3120 nM.

As to `O=C1/C(=C(/c2ccccc2)N2CCOCC2)Cc2ccccc21`, the GI50 is 501 nM and the TGI was found to be 1900 nM.

As to `Cc1cc(C(=O)Nc2ccc3cc(CN4CCOCC4)ccc3n2)c(C)n1-c1ccccc1`, the 50% growth inhibitory concentration (GI50) was 171 nM and the TGI was found to be 7110 nM.

As for `Cc1cc(C)c(NC(=O)c2sc3nc4c(cc3c2N)C(=O)CCC4)c(C)c1`, the GI50 is 651 nM and the total growth inhibition concentration (TGI) turned out to be 4390 nM.

For the molecule `CCOC(=O)C1CCN(S(=O)(=O)/N=C2/NC(=O)NC2=C(Cl)Cl)CC1`, the GI50 is 387 nM and the TGI was found to be 2080 nM.

In the case of `COc1ccc(C(=O)c2cc(C)c(OC)c(C)c2)c(OC)c1O`, the GI50 is 489 nM and the TGI is more than 100000 nM.

With `COCC[C@H]1CCC/C=C/[C@@H]2C[C@H](O)C[C@H]2[C@H](O)/C=C/C(=O)O1`, the GI50 is 24.5 nM and the TGI amounted to 71.4 nM.

Consider `CCCC(CCC)NCC(O)c1cc(-c2ccc(C(F)(F)F)cc2)nc(C(F)(F)F)c1` (stereo unspecified), for which the GI50 was 1580 nM and the TGI was 2980 nM.

As for `C=C(C)[C@@H]1CC[C@]2(CO)CC[C@]3(C)[C@H](CC[C@@H]4[C@@]5(C)C=C(C#N)C(=O)C(C)(C)[C@@H]5CC[C@]43C)[C@@H]12`, the GI50 was 1300 nM and the total growth inhibition concentration (TGI) stood at 3850 nM.

For the molecule `COc1ccc(C(=O)c2cc(C)c(OC)c(C)c2)cc1OC(=O)CCl`, the GI50 is 89.4 nM and the TGI worked out at 75200 nM.

As to `CC(C)c1ccc(-c2cc(-c3cn[nH]c3-c3ccccn3)ccn2)cc1`, the GI50 is 10500 nM and the TGI was 24700 nM.
